Measured values as given in patent US20210069295A1, “GALECTINS CONTROL MTOR IN RESPONSE TO ENDOMEMBRANE DAMAGE AND PROVIDE A MECHANISM AND TARGET FOR THE TREATMENT OF AUTOPHAGY-RELATED DISEASES” (STC. UNM, priority 2017, published 2021).
Peptide text beside a SMILES is read from it.

Test system: mTOR
Assay: mTOR activity by immunoblotting in HeLa cells (wildtype and TSC2-deleted)
Type: cell-based
Conditions: 100 μM GPN 1 h
Procedure: (A) Analysis of mTOR activity in TSC2-deleted (TSC2−/−) and wildtype (TSC2WT) HeLa cells treated with 100 μM GPN in full medium (Full) or starved in EBSS for 1 h. mTOR activity was monitored by immunoblotting analysis of S6K1 (T389) phosphorylation (phosphorylated S6K (p-T389) relative to total S6K). Ctrl, control (untreated cells). (B) Co-immunoprecipitation analysis of changes in interactions between Ragulator and Rag GTPases following treatment with GPN. HEK293T cells stably expressing FLAG-metap2 (control) or FLAG-p14 were treated with 100 μM GPN in full medium for 1 h. Cell lysates were immunoprecipitated (IP) with anti-FLAG antibody and immunoblotted for endogenous RagA or RagC. […] (D) Analysis of mTOR activity in HEK293T cells or HEK293T cells stably expressing constitutively active RagB GTPase (RagBQ99L) treated with 100 μM GPN in full medium or starved in EBSS for 1 h. mTOR activity was monitored as in A. Data, means±SEM, (n=3), † not significant, **p<0.01, ANOVA. […] (F) Quantification by HC of overlaps between mTOR and LAMP2 (representative images shown in FIG. S2C) in HEK293T cells and HEK293T cells stably expressing constitutively active RagB GTPase (RagBQ99L) treated with 100 μM GPN in full medium for 1 h. Data, means±SEM, n≥3 independent experiments (500 primary objects counted per well; ≥5 wells/sample per each experiment); † p≥0.05, *p<0.05, ANOVA. […]

NCC(=O)N[C@@H](Cc1ccccc1)C(=O)Nc1ccc2ccccc2c1 [GPN, glycyl-L-phenylalanine 2-naphththylamide] (HELM PEPTIDE1{G.F.[c1ccc2cc(N[*:1])ccc2c1]}$$$$V2.0)
mTOR activity in different cell lines (HeLa cells, comparable to starvation): inhibited mTOR activity
mTOR activity in cells null for TSC2 (TSC2-deleted HeLa cells): inhibited mTOR
